Where two headings read alike, the source gives them in different places.
Experiments:
Format in all cases: biochemical
aggrecanase-1 = target: T1, aggrecanase-1 (Homo sapiens, UniProt O75173); assay: Aggrecanase-1 inhibitory action (Particle Assay, GAG release from aggrecan-containing polyacrylamide particles)
T1 sequence (O75173 213-837): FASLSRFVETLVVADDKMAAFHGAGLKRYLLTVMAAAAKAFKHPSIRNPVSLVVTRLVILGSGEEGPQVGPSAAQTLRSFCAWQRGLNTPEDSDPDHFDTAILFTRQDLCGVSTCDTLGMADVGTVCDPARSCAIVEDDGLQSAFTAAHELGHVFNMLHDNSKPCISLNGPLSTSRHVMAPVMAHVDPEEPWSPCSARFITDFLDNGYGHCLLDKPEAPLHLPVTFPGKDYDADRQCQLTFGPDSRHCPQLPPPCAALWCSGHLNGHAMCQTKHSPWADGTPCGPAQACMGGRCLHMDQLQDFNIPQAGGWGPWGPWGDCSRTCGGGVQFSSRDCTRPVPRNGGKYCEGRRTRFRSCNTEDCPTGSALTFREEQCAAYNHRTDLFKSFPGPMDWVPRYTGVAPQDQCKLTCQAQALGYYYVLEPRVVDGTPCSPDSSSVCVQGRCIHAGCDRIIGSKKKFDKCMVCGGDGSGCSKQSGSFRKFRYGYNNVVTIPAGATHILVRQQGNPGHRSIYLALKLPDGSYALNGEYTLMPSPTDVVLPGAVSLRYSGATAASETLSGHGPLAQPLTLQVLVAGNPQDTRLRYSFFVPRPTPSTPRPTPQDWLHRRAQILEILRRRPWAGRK
In short: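 Readout was dimethylmethylene blue absorbance (595 nm) of glycosaminoglycan liberated into supernatant, calibrated with whale chondroitin sulfate. Substrate was aggrecan in polyacrylamide particles, digested 15 h at 37° C in Tris-HCl; TC50 (μM) derived from inhibition relative to no-enzyme and no-inhibitor controls.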

MMP-1 = target: T2, MMP-1 (Homo sapiens, UniProt P03956); assay: MMP-1 inhibitory action (Type I collagen Activity Measurement kit, FITC-labeled collagen type I)
T2 sequence (P03956 100-469): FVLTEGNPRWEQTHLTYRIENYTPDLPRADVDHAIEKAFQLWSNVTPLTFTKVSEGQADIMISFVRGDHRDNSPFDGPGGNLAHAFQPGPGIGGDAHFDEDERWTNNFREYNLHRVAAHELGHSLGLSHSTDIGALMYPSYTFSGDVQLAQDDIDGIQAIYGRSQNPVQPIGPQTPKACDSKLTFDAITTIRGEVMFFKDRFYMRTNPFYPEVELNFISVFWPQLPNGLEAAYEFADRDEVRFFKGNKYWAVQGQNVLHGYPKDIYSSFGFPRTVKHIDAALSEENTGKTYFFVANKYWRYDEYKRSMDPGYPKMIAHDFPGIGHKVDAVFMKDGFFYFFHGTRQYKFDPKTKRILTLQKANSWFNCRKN

Recombinant Human MMP-13 = target: T3, Recombinant Human MMP-13 (Homo sapiens, UniProt P45452); assay: MMP-13 inhibitory activity (MMP-13 specific fluorescent substrate with quencher)
T3 construct: purchased R&D systems 511-MM
In short: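 IC50 (μM) derived from % inhibition, normalised to wells without enzyme and without inhibitor, fluorescence read at 325/405 nm. Enzyme and compound preceded addition of the quenched 7-MCA…DPA substrate; Tris-HCl buffer, 25 °C for 1 h, acetic-acid stop.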

[1] = Experimental Example 1, read-out: IC50 AG1
[2] = Experimental Example 2, read-out: IC50 MMP1
[3] = Experimental Example 3, read-out: IC50 MMP13
[4] = aggrecanase-1 inhibitory action, read-out: IC50 AG1 (Experimental Example 1)
[5] = MMP-1 inhibitory action, FITC-labeled collagen type I, 37° C. for 3 hr, read-out: IC50 MMP1 (Experimental Example 2)
[6] = Recombinant Human MMP-13, fluorescent substrate, 25° C. for 1 h, read-out: IC50 MMP13 (Experimental Example 3)

IC50 (aggrecanase-1; [1]) [nM]	IC50 (MMP-1; [2]) [nM]	IC50 (Recombinant Human MMP-13; [3]) [nM]	IC50 (aggrecanase-1; [4]) [nM]	IC50 (MMP-1; [5]) [nM]	IC50 (Recombinant Human MMP-13; [6]) [nM]	SMILES
< 1000	≥ 10000	< 1000				O=C(CCO)NCC1(c2ccccc2)CC1(NS(=O)(=O)c1ccc(-c2ccc(Cl)cc2)s1)C(=O)O (stereo not drawn) [Example 2-395]
			< 100	≥ 10000	< 1000	CC(C)(CO)NC(=O)c1ccccc1C1CC1(NS(=O)(=O)c1ccc(-c2ccc(Cl)cc2)s1)C(=O)O (stereo not drawn) [Example 2-78]
< 100	≥ 10000	< 1000				O=C(O)C1(NS(=O)(=O)c2ccc(-c3ccc(Cl)cc3)s2)CC1(COCCO)c1ccccc1 (stereo not drawn) [Example 2-347]
			≥ 1000	≥ 10000	< 1000	O=C(O)C1(NS(=O)(=O)c2ccc(-c3ccc(Cl)cc3)s2)CC1c1ccc(OCc2ccccc2)cc1 (stereo not drawn) [Example 2-225]
< 1000	≥ 1000	< 1000				NC(=O)OCC1(c2ccccc2)CC1(NS(=O)(=O)c1ccc(-c2cc(C(F)(F)F)on2)s1)C(=O)O (stereo not drawn) [Example 2-335]
≥ 1000	≥ 10000	≥ 1000				C[C@]1(c2ccccc2)C[C@@]1(NS(=O)(=O)c1ccc(-c2cccc(C(F)(F)CO)c2)s1)C(=O)O [Example 2-606]
< 1000	≥ 10000	< 1000				CC(C)C(=O)NCC1(c2ccccc2)CC1(NS(=O)(=O)c1ccc(-c2ccc(Cl)cc2)s1)C(=O)O (stereo not drawn) [Example 2-397]
≥ 1000	≥ 10000	≥ 1000				C[C@]1(c2ccccc2)C[C@@]1(NS(=O)(=O)c1ccc(-c2ccc3nnn(O)c3c2)s1)C(=O)O [Example 2-487]
≥ 1000	≥ 10000	≥ 10000				CCOC(=O)c1cccc(-c2ccc(S(=O)(=O)N[C@@]3(C(=O)O)C[C@]3(C)c3ccccc3)s2)c1 [Example 2-478]
			≥ 10000	≥ 10000	≥ 10000	O=C(O)C1(CS(=O)(=O)c2ccc(-c3ccc(Cl)cc3)s2)CC1c1ccccc1 (stereo not drawn) [Example 2-187]
			< 100	≥ 10000	< 1000	COC(=O)c1ccccc1C1CC1(NS(=O)(=O)c1ccc(-c2ccc(Cl)cc2)s1)C(=O)O (stereo not drawn) [Example 2-205]
< 1000	≥ 10000	< 1000				O=C(O)C1(NS(=O)(=O)c2ccc(-c3ccc(Cl)cc3)s2)CC1(Cn1ccnc1)c1ccccc1 (stereo not drawn) [Example 2-346]
< 100	≥ 1000	< 1000				C[C@]1(c2ccccc2)C[C@@]1(NS(=O)(=O)c1ccc(-c2ccc(F)c(Cl)c2)s1)C(=O)O [Example 2-413]
< 1000	≥ 1000	< 1000				C[C@]1(c2ccccc2)C[C@@]1(NS(=O)(=O)c1ccc(-c2ccc(F)c(O)c2)s1)C(=O)O [Example 2-600]
			< 100	≥ 10000	< 100	O=C(O)C1(NS(=O)(=O)c2ccc(-c3ccc(Cl)cc3)s2)CC1c1ccccc1OCc1cccnc1 (stereo not drawn) [Example 2-22]

Continued, molecule first:

SMILES	IC50 (aggrecanase-1; [1]) [nM]	IC50 (MMP-1; [2]) [nM]	IC50 (Recombinant Human MMP-13; [3]) [nM]	IC50 (aggrecanase-1; [4]) [nM]	IC50 (MMP-1; [5]) [nM]	IC50 (Recombinant Human MMP-13; [6]) [nM]
CC1[C@H](c2ccccc2)[C@]1(NS(=O)(=O)c1ccc(-c2cn3cccnc3n2)s1)C(=O)O (stereo partly drawn) [Example 2-571]	≥ 1000	≥ 1000	< 1000			
CCCC(=O)c1ccc(S(=O)(=O)NC2(C(=O)O)CC2c2ccccc2)s1 (stereo not drawn) [Example 2-117]				≥ 10000	≥ 10000	≥ 10000
CCC1(c2ccccc2)CC1(NS(=O)(=O)c1ccc2c(c1)Cc1cc(F)ccc1-2)C(=O)O (stereo not drawn) [Example 2-146]				< 1000	≥ 10000	< 1000
O=C(OCCc1ccccc1C1CC1(NS(=O)(=O)c1ccc(-c2cc(C(F)(F)F)on2)s1)C(=O)O)N1CCOCC1 (stereo not drawn) [Example 2-242]				< 100	≥ 1000	< 100
O=C(O)C1(NS(=O)(=O)c2ccc(-c3cc(C(F)(F)F)on3)s2)C2CCCc3ccccc3C21 (stereo not drawn) [Example 2-305]	< 100	≥ 1000	< 100			
O=C(O)C1(NS(=O)(=O)c2ccc(-c3ccc(Cl)cc3)cc2)CC1c1cccc(OCc2cccnc2)c1 (stereo not drawn) [Example 1-76]				< 1000	≥ 10000	< 100
O=C(O)C1(NS(=O)(=O)N2CCC(Oc3ccc(Cl)cc3)CC2)CC1c1ccccc1 (stereo not drawn) [Example 2-128]				≥ 10000	≥ 10000	≥ 10000
O=C(O)C1(NS(=O)(=O)c2cn3cc(-c4ccc(Cl)cc4)nc3s2)CC1c1ccccc1 (stereo not drawn) [Example 2-490]	≥ 1000	≥ 10000	< 100			
CC1[C@H](c2ccccc2)[C@]1(NS(=O)(=O)N1CCC(OCc2cc(Cl)ccc2Cl)C1)C(=O)O (stereo partly drawn) [Example 2-551]	≥ 1000	≥ 1000	≥ 1000			
O=C(O)C1(NS(=O)(=O)N2CCC(Oc3ccc(F)cc3)CC2)CC1c1ccccc1 (stereo not drawn) [Example 2-145]				≥ 10000	≥ 10000	≥ 1000
CC1[C@H](c2ccccc2)[C@]1(NS(=O)(=O)c1ccc2c(c1)Cc1cc(Br)ccc1-2)C(=O)O (stereo partly drawn) [Example 2-286]	< 100	≥ 1000	< 100			
O=C(O)C1(NS(=O)(=O)N2CCc3c([nH]c4ccccc34)C2)CC1c1ccccc1 (stereo not drawn) [Example 2-125]				≥ 10000	≥ 10000	≥ 10000
CC1(c2ccc(F)cc2)CC1(NS(=O)(=O)c1ccc(-c2cc(C(F)(F)F)on2)s1)C(=O)O (stereo not drawn) [Example 2-339]	< 100	≥ 1000	< 1000			
O=C(O)C1(NS(=O)(=O)c2ccc(-c3ccc(Cl)cc3)s2)CC1c1cccc(Oc2cccnc2)c1 (stereo not drawn) [Example 1-88]				< 100	≥ 10000	< 1000
CC1[C@H](c2ccccc2)[C@]1(NS(=O)(=O)N1CCN(c2ccc(Cl)cn2)CC1)C(=O)O (stereo partly drawn) [Example 2-457]	< 100	≥ 1000	< 100			
CC(F)(F)c1cc(-c2ccc(S(=O)(=O)N[C@@]3(C(=O)O)C[C@@H]3c3ccccc3)s2)ns1 [Example 2-124]				< 100	≥ 1000	< 100
NCc1ccc([C@@H]2C[C@]2(NS(=O)(=O)c2ccc(-c3cc(C(F)(F)F)on3)s2)C(=O)O)cc1 [Example 2-289]	< 1000	≥ 1000	< 1000			
NC(=O)CCc1ccc([C@H]2C[C@@]2(NS(=O)(=O)c2ccc(-c3cc(C(F)(F)F)on3)s2)C(=O)O)cc1 [Example 2-278]	< 100	< 1000	< 100			
O=C(O)C1(NS(=O)(=O)c2ccc(-c3cc(C(F)(F)F)on3)s2)CC1c1cc(CO)on1 (stereo not drawn) [Example 2-318]	≥ 1000	≥ 10000	≥ 10000			
O=C(O)C1(NS(=O)(=O)c2ccc(Cl)s2)CC1c1ccccc1 (stereo not drawn) [Example 2-82]				≥ 10000	≥ 10000	≥ 10000
O=C(O)C1(NS(=O)(=O)c2ccc(-c3cc(C(F)(F)F)on3)s2)C2Cc3ccccc3C21 (stereo not drawn) [Example 2-277]	< 1000	≥ 1000	< 1000			
CC1[C@H](c2ccccc2)[C@]1(NS(=O)(=O)N1CCN(c2ccc(Cl)cc2F)CC1)C(=O)O (stereo partly drawn) [Example 2-460]	< 1000	≥ 1000	< 100			
O=C(O)[C@]1(NS(=O)(=O)c2ccc(-c3noc(C(F)(F)C(F)(F)F)n3)s2)C[C@@H]1c1ccccc1 [Example 2-45]				≥ 1000	≥ 10000	≥ 1000
O=C(O)[C@]1(NS(=O)(=O)/C=C/c2ccccc2)C[C@@H]1c1ccccc1 [Example 2-140]				≥ 10000	≥ 10000	≥ 1000
CC(=O)Nc1cccc(C2CC2(NS(=O)(=O)c2ccc(-c3ccc(Cl)cc3)cc2)C(=O)O)c1 (stereo not drawn) [Example 1-40]				< 1000	≥ 1000	< 100
